Legend:
[1] = test system: neonatal rat cardiomyocytes (NRC); assay: Western blot of AMPK phosphorylation and Nmrk2 protein in NRC; assay type: cell-based; settings: AICAR 500 μM, 48 h
Method: Proteins were homogenized in a lysis buffer (Tris-HCl pH 7.5 50 mM, NP40 Igepal 1%, NaCl 150 mM, EDTA 1 mM, DTT 1 mM, Glycerol 10%) in the presence of proteases.
phosphatases and deacetylases inhibitors (PMSF 0.5 mM, NaF 50 mM, PPiNa 5 mM, Roche protease cocktail inhibitor 1/100, Santa Cruz deacetylase cocktail inhibitor 1/100). Equal amounts of proteins (10 to 20 μg) were separated on SDS-PAGE and transferred to nitrocellulose membranes. Proteins were detected by overnight incubation at 4° C. with primary antibodies, followed by IRDye 700 or IRDye800 fluorescent antibodies (Li-Cor Biosciences. 1/2500) and scanned on an Odyssey CLx Infrared Imaging System (Li-Cor Biosciences).
(§1) Isolation and Treatments of Neonatal Rat Cardiomyocytes (NRC) NRC were isolated as described previously (Diguet et al., 2011). 1-day-old rat pups were killed by decapitation and the cardiac ventricles were harvested and minced into 1 to 2-mm wide cubes with scissors. After washing with Tyrode solution, heart fragments were subjected up to 10 rounds of digestion with 0.05 mg/ml of Liberase Blendzyme 4 (Roche Applied Science) in 10 ml oxygenated Tyrode solution under agitation at 37° C. for 10 minutes. The supernatant of the first digestion was discarded and the following digestions were centrifuged and the cell pellet dissociated in 2 ml of DMEM, 10% FCS. […]

[2] = test system: neonatal rat cardiomyocytes (NRC); assay: NAD+ and NADH levels in NRC; assay type: cell-based; settings: AICAR treatment
Method: For cell cultures, the wells were washed twice with PBS and scraped on ice in HClO4 0.5M (100 μl/well in 12-well plate). Acid extracts were neutralized with a half volume of KOH 1M/K2HPO4-KH2PO4 0.33 M pH 7.5. Heat denaturation was selective for NAD^+ in this condition. Measures were made on a volume of […], of non heated extracts (NADt) or 25 μl of heated extracts (NADH) (diluted 1/10 to 1/20).
For both types of extracts (buffered ethanol or HClO4) we added 100 μL of reaction buffer (600 mM ethanol, 0.5 mM 3-(4.5-dimethylthiazol-2-yl)-2.5-diphenyltetrazolium bromide (MTT), 2 mM phenazine ethosulfate (PES), 120 mM Bicine (pH 7.8), yeast alcohol dehydrogenase (SIGMA A3263>300 u/mg.) 0.05 mg/ml. Kinetics of the reaction (OD at 550 nm, every 30 seconds for 40 minutes) was followed on a TECAN Infinite F500 microplate reader. NAD was quantified in duplicates for each sample by comparison to a range of standard NAD^+ concentration using linear regression curve equation method between NAD^+ standard concentrations and the slope of the reaction in OD units/sec. NAD^+/NADH was obtained by the formula ([NADt]−[NADH])/[NADH]. Cell extracts were quantified for protein concentration determined by Bradford assay.
Isolation and Treatments of Neonatal Rat Cardiomyocytes (NRC) NRC were isolated as described previously (Diguet et al., 2011). […]

[3] = test system: Nmrk2; assay: RT qPCR of Nmrk2 mRNA in NRC; assay type: cell-based, rat; settings: AICAR treatment
Method: cDNAs were reverse transcribed from RNA (1.5 μg) extracted in TRIzol (Thermofisher) from cell cultures and tissues using the Superscript II Reverse Transcriptase (Life Technologies). Quantitative PCR was carried out on a Light Cycler 480 (Roche Diagnostics) using Fast Start SYBR Green Master (Roche Diagnostics). Quantification of gene expression was calculated as R=2^ΔCt(Ref Cp−target Cp), with Hprt used as a as reference. Primers were designed using the NCBI Primer-BLAST software. Primer sequences are available on request.
as §1, with “FCS. The different fractions were pooled and centrifuged on a discontinuous Percoll gradient (bottom 58.5%. top 40.5%. 30 min. 3000 rpm) to enrich in cardiomyocytes at the interface between the 2 Percoll solutions.” for “FCS.”

[4] = test system: Nmrk2 promoter; assay: Nmrk2 promoter luciferase reporter assay in NRC; assay type: cell-based, rat; settings: NRC, AICAR 500 μM
Method: Isolation and Treatments of Neonatal Rat Cardiomyocytes (NRC) NRC were isolated as described previously (Diguet et al., 2011). 1-day-old rat pups were killed by decapitation and the cardiac ventricles were harvested and minced into 1 to 2-mm wide cubes with scissors. After washing with Tyrode solution, heart fragments were subjected up to 10 rounds of digestion with 0.05 mg/ml of Liberase Blendzyme 4 (Roche Applied Science) in 10 ml oxygenated Tyrode solution under agitation at 37° C. for 10 minutes. The supernatant of the first digestion was discarded and the following digestions were centrifuged and the cell pellet dissociated in 2 ml of DMEM, 10% FCS. The different fractions were pooled and centrifuged on a discontinuous Percoll gradient (bottom 58.5%. top 40.5%. 30 min. 3000 rpm) to enrich in cardiomyocytes at the interface between the 2 Percoll solutions. Non cardiac cells containing mainly fibroblasts were at the top of the tubes. Neonatal cardiomyocytes were seeded at a density 5×10^5 cells/well in 6-well plates coated with 10 μg/ml of laminin (BD Biosciences) in DMEM without pyruvate, with glucose 4.5 g/l, 10% horse serum, 5% FCS and cultured at 37° C. in 1% CO, atmosphere. To assay the impact on NAD^+ and Nmrk2 expression, Azaserin and FK866 drugs were added in the culture medium at day 5 and renewed everyday when the treatment was prolonged over several days. The same was done for NAD^+, NR and AICAR (5-aminoimidazole-4-carboxamide-1-β-D-ribofuranoside). AICAR was administrated for 24 h only. Doses are indicated in the legends. For treatment of transfected cells (see next section), AICAR, FK866 and PPAR agonists and antagonist were administrated 1 day after transfection. PPAR agonists: GW7647 for PPARα, GW501516 for PPARβ/δ and GW1929 for PPARγ; PPAR antagonists: GW6471 PPARα, GSK3787 for PPARβ/δ and GW9662 for PPARγ were ordered from SIGMA ALDRICH CHIMIE, Saint Quentin Fallavier, France.
The transcription initiation site of mouse Nmrk2 promoter was determined by 5′RACE and was conform to the reported site in the Genebank (NM_027120.2). The promoter of the mouse Nmrk2 gene was cloned from C57B16/N genomic DNA by PCR, and inserted into a pGL4.10[luc2] luciferase reporter plasmid (Promega prod no E6651). Subsequent deletions were performed by enzymatic digestion or primer mediated subcloning of the original fragment. 2.5×10^5 cardiomyocytes in 12-well plates were co-transfected at day 2 of culture with 1 μg of Nmrk2 pGL4.10[luc2] constructs and 100 ng of pGL4.73[hRluc/SV40] Vector (Promega prod no E6911) as an internal control of transfection efficiency using Lipofectamine 2000 (Lifetechnology) as indicated by the supplier. In the case of AICAR treatment, Luciferase activity was analyzed 48 h later with the Dual-Luciferase Assay System (Promega).
The pcDNA3 vectors harboring dominant negative AMPK, PPARα, PPARβ and PPARγ as well as RXR genes were kindly provided by Pr. Michel Raymondjean (El Hadri et al. (2015). AMPK Signaling Involvement for the Repression of the IL-1beta-Induced Group IIA Secretory Phospholipase A2 Expression in VSMCs. Journal 10, e0132498; Ravaux et al. (2007). Inhibition of interleukin-1 beta-induced group 11A secretory phospholipase A2 expression by peroxisome proliferator-activated receptors (PPARs) in rat vascular smooth muscle cells: cooperation between PPARbeta and the proto-oncogene BCL-6. Journal 27, 8374-8387; Woods et al. (2000). Characterization of the role of AMP-activated protein kinase in the regulation of glucose-activated gene expression using constitutively active and dominant negative forms of the kinase. Journal 20, 6704-6711). These vectors were cotransfected at a dose of 100 ng/well in 24-well plates with 500 ng of Nmrk2 luciferase constructs.

SMILES: NC(=O)c1ncn([C@@H]2O[C@H](COP(=O)(O)O)[C@@H](O)[C@H]2O)c1N [AICAR, 5-Aminoimidazole-4-carboxamide ribonucleotide]
- AMPK phosphorylation [1]: stimulated
- Nmrk2 expression at the protein level [1]: induced
- NAD+ or NADH levels [2]: did not modulate
- Nmrk2 expression (mRNA) [3]: robustly induced
- full-length p3009-Luc Nmrk2 reporter response [4]: highly responsive
- p581-Luc Nmrk2 reporter response [4]: modestly responsive

— patent US20190350955A1, “METHODS AND PHARMACEUTICAL COMPOSITIONS FOR THE TREATMENT OF CARDIOMYOPATHIES” (INSERM (Institut National de la Sante et de la Recherche …, priority 2016, published 2019)
